The values below come from publication PMC3259259 (Chemical Research in Toxicology, 2011).

The Kd is the equilibrium constant for the complex coming apart.

The structures appear in SMILES notation. Read-outs that look alike come from different tables or passages of the source.

The nature of data set [1]: Single-turnover. On the set-up: species or system [13, 20]. Conditions: read-out: Kd (incoming nucleotide, Pol•DNA complex), Pol β, 37 °C.
A short description of data set [2]: Single-turnover. The arrangement: species or system [13, 20]. The conditions noted are these: read-out: Kd (incoming nucleotide, Pol•DNA complex), Pol λ, 37 °C.
Data set [3] in a line: Single-turnover. On the set-up: species or system [13, 20]. Conditions: read-out: Kd (incoming nucleotide, Pol•DNA complex), Pol η, 37 °C.
Data set [4] is described as follows: Single-turnover. On the set-up: species or system [13, 20]. The conditions noted are these: Pol κ; for Kd: read-out: Kd (incoming nucleotide, Pol•DNA complex), 37 °C.
Data set [5] is described as follows: Single-turnover. The arrangement: species or system [13, 20]. The conditions noted are these: Pol ι; for Kd: read-out: Kd (incoming nucleotide, Pol•DNA complex), 37 °C.
Data set [6] can be described thus: Single-turnover. On the set-up: species or system [13, 20]. Conditions: Rev1; for Kd: read-out: Kd (incoming nucleotide, Pol•DNA complex).
For data set [7] the following is noted: read-out: Kd (incoming nucleotide, Pol•DNA complex), Pol λ, 37 °C, cited from earlier work.
For data set [8] the following is noted: read-out: Kd (incoming nucleotide, Pol•DNA complex); HIV-1 RT; opposite template dC; 37 °C; cited from earlier work.
For data set [9] the following is noted: read-out: Kd (incoming nucleotide, Pol•DNA complex), Pol β, 37 °C, cited from earlier work.
The conditions of data set [10]: read-out: Kd (incoming nucleotide, Pol•DNA complex), Pol η, 37 °C, cited from earlier work.
The conditions of data set [11]: read-out: Kd (incoming nucleotide, Pol•DNA complex), Pol κ, 37 °C, cited from earlier work.
For data set [12] the following is noted: Pol ι, 37 °C, cited from earlier work; for Kd: read-out: Kd (incoming nucleotide, Pol•DNA complex).
For data set [13] the following is noted: Rev1, 37 °C, cited from earlier work; for Kd: read-out: Kd (incoming nucleotide, Pol•DNA complex).
The conditions of data set [14]: read-out: Kd (incoming nucleotide, Pol•DNA complex), Pol γ, 37 °C, cited from earlier work.
The conditions of data set [15]: read-out: Kd (incoming nucleotide, Pol•DNA complex); T7 exo; opposite template dT; 37 °C; cited from earlier work.
A short description of data set [16]: Single-turnover kinetic assays, summary over the non-canonical human pols. The arrangement: species or system [13, 20].
For data set [17] the following is noted: Pols β, λ, η, ι, κ, Rev1; cited from earlier work.

On to `Nc1ncnc2c1ncn2CCOCP(=O)(O)OP(=O)(O)OP(=O)(O)O` [PMEA-DP, diphosphate of 9-[2-(phosphonomethoxy)ethyl]adenine], for which the Kd in the data set “Single-turnover [1]” (opposite template dT) was 65 ± 6 µM; in the data set “Single-turnover [2]” (opposite template dT (21-19C-41merTG)) it was 4.5 ± 0.3 µM; in “Single-turnover [3]” (opposite template dT) it was 55 ± 18 µM; in “Single-turnover [4]” (opposite template dT) it was 23 ± 3 µM; in the data set “Single-turnover [5]” (opposite template dT), 180 ± 40 µM; in the data set “Single-turnover [6]” (opposite template dT, 37 °C), 120 ± 20 µM. Besides, the results for the “Decrease of rate of incorporation relative to dATP” value in the data set “Single-turnover [4]” (opposite template dT), in “Single-turnover [5]” (opposite template dT) and in “Single-turnover [6]” (opposite template dT) were 60 fold, 30 fold and 4 fold, respectively. Moreover, the figures for the “Ground-state binding affinity (1/Kd) weaker than dATP” value in the data set “Single-turnover [4]” (opposite template dT) and in “Single-turnover [6]” (opposite template dT) were 3 fold and 60 fold, respectively. In the data set “Single-turnover [5]” (opposite template dT), the “Ground-state binding affinity (1/Kd) relative to dATP” value is recorded as “unchanged”.
Turning to `Nc1nc2c(ncn2[C@H]2C[C@H](O)[C@@H](COP(=O)(O)OP(=O)(O)OP(=O)(O)O)O2)c(=O)[nH]1` [dGTP], the Kd is 8.7 ± 0.4 µM in the data set “Single-turnover [1]” (opposite template dC); 80 ± 10 µM in the data set “Single-turnover [3]” (opposite template dC); 10.6 ± 0.9 µM in the data set “Single-turnover [4]” (opposite template dC); 141 ± 8 µM in the data set “Single-turnover [5]” (opposite template dC); 3.9 ± 0.8 µM in “Single-turnover [6]” (opposite template dC, 37 °C); 2.1 ± 0.3 µM in data set [7] (opposite template dC). Further, the Kd in data set [8] was 1.76 ± 0.51 µM.
As for `Nc1ncnc2c1ncn2[C@H]1C[C@H](O)[C@@H](COP(=O)(O)OP(=O)(O)OP(=O)(O)O)O1` [dATP], the Kd in data set [9] (opposite template dT) was 9.2 ± 1 µM; in data set [7] (opposite template dT), 0.9 ± 0.3 µM; in [10] (opposite template dT), 130 ± 30 µM; in [11] (opposite template dT), 7 ± 1 µM; in [12] (opposite template dT), 260 ± 40 µM; in [13] (opposite template dT) it was 2 ± 0.3 µM. In addition, the Kd was 0.8 ± 0.1 µM in [14] (opposite template dT) and 8 ± 2 µM in data set [15].
Consider `CC(Cn1cnc2c(N)ncnc21)OCP(=O)(O)OP(=O)(O)OP(=O)(O)O` (stereo not drawn) [PMPA-DP, diphosphate of 9-[2-(phosphonomethoxy)propyl]adenine], for which the Kd in [9] (opposite template dT) was 50 ± 10 µM; in data set [7] (opposite template dT), 3.7 ± 0.9 µM; in data set [10] (opposite template dT), 90 ± 10 µM; in data set [11] (opposite template dT), 3000 ± 2000 µM; in [14] (opposite template dT), 40.3 ± 5.7 µM; in data set [15], 268 ± 39 µM. The “Kd (incoming nucleotide, Pol•DNA complex)” value in data set [12] (opposite template dT) and in [13] (opposite template dT) was “No observed incorporation” in each case. The “kp (maximum rate of incorporation)” value in data set [12] (opposite template dT) and in data set [13] (opposite template dT) was “too inefficient to be observed” each time.
Regarding `Cc1cn([C@@H]2C[C@@H](O)[C@H](COP(=O)(O)OP(=O)(O)OP(=O)(O)O)O2)c(=O)[nH]c1=O` [L-TBV-TP, β-L-2′-deoxythymidine 5′-triphosphate], the Kd in the data set “Single-turnover [1]” (opposite template dA) was determined as 11 ± 1 µM; in the data set “Single-turnover [2]” (opposite template dA), 53 ± 6 µM; in “Single-turnover [3]” (opposite template dA) it was 400 ± 100 µM; in “Single-turnover [4]” (opposite template dA), 90 ± 20 µM; in the data set “Single-turnover [5]” (opposite template dA), 100 ± 30 µM. The “Kd (incoming nucleotide, Pol•DNA complex)” value in the data set “Single-turnover [6]” (opposite template dA, 37 °C) is “No observed incorporation”. In data set [16] (Pols β, λ, η, ι, κ, Rev1, analog vs its natural dNTP, 37 °C), the “Selection factors, range over the non-canonical human pols” value was “greater than 8,000”. Moreover, in data set [16] (pols other than Rev1), the “Binding to the Pol•DNA complex weakened compared to dTTP, on average” value was 10 fold.
For `Nc1ccn([C@H]2C[C@H](O)[C@@H](COP(=O)(O)OP(=O)(O)OP(=O)(O)O)O2)c(=O)n1` [dCTP], the Kd in data set [9] (opposite template dG) is 0.71 ± 0.04 µM; in data set [7] (opposite template dG), 0.9 ± 0.1 µM; in data set [10] (opposite template dG), 25 ± 4 µM; in data set [11] (opposite template dG) it was 32 ± 5 µM; in [12] (opposite template dG), 50 ± 5 µM; in data set [13] (opposite template dG), 2.2 ± 0.3 µM. Also, the Kd in data set [14] (opposite template dG) was 1.1 ± 0.1 µM.
For the molecule `C=C1[C@H](COP(=O)(O)OP(=O)(O)OP(=O)(O)O)[C@@H](O)C[C@@H]1n1cnc2c(=O)[nH]c(N)nc21` [ETV-TP, entecavir 5′-triphosphate], the Kd turned out to be 0.26 ± 0.04 µM in the data set “Single-turnover [1]” (opposite template dC); 0.09 ± 0.02 µM in “Single-turnover [2]” (opposite template dC); 2.4 ± 0.4 µM in “Single-turnover [3]” (opposite template dC); 4.2 ± 0.1 µM in the data set “Single-turnover [4]” (opposite template dC); 33 ± 5 µM in the data set “Single-turnover [5]” (opposite template dC); 56 ± 10 µM in “Single-turnover [6]” (opposite template dC, 37 °C). The Kd in data set [8] was 2.23 ± 0.67 µM. In addition, in data set [16] (Pols β, λ, η, ι, κ, Rev1), the “Rate of incorporation slower than dGTP, on average” value was 120 fold. For the same molecule, in [16] (except for Rev1), the “Binding affinity tighter than dGTP, on average” value is “approximately 20 fold”.
As for `Nc1ccn([C@H]2CS[C@@H](COP(=O)(O)OP(=O)(O)OP(=O)(O)O)O2)c(=O)n1` [L-3TC-TP, β-L-2′,3′-dideoxy-3′-thiacytidine 5′-triphosphate], the Kd is 0.18 ± 0.02 µM in data set [9] (opposite template dG); 0.106 ± 0.01 µM in [7] (opposite template dG); 3.3 ± 0.3 µM in data set [10] (opposite template dG); 4 ± 0.5 µM in data set [11] (opposite template dG); 96 ± 8 µM in [12] (opposite template dG); 1.04 ± 0.1 µM in [13] (opposite template dG). Besides, in data set [14] (opposite template dG), the Kd is 9.2 ± 0.9 µM. Besides, the “Decrease of Kd compared to dCTP, on average” value in [17] is listed as 6 fold.
As for `Cc1cn([C@H]2C[C@H](O)[C@@H](COP(=O)(O)OP(=O)(O)OP(=O)(O)O)O2)c(=O)[nH]c1=O` [dTTP], the Kd was 3.5 ± 0.5 µM in data set [9] (opposite template dA); 2.6 ± 0.4 µM in [7] (opposite template dA); 41 ± 5 µM in [10] (opposite template dA); 11 ± 0.5 µM in data set [11] (opposite template dA); 13 ± 1 µM in data set [12] (opposite template dA); 6 ± 1 µM in [13] (opposite template dA).
